# Experimental data from PMC8037182, “Solvothermal Synthesis of Multiple Dihydropyrimidinones at a Time as Inhibitors of Eg5” (Molecules, 2021).
# System: Caco-2 cell line
# Assay: Cytotoxicity MTS assay, Caco-2 cell line
# Format: cell-based
# Settings: for OD490 Mean / OD490 Well 1 / OD490 Well 2 / OD490 Well 3: Caco-2 cell line; for IC50: MTS assay, 24 h exposure
# Protocol: The positive compounds (IC50 < 100 μM) obtained from the primary Eg5 motor protein ATPase assay were tested for antiproliferative activity in vitro against Caco-2 cell line, Hela cell line, L929 cell line and T24 cell line by performing MTS assay. Cells were introduced into 96-well plates at a density of 1000 cells per well. After 24 h incubation, the cells were exposed with compounds at final concentrations ranging from 0.5 to 100 µM for 24 h. DMSO was used at a final concentration of 0.025% as blank control, monastrol was used as the positive control. Then 20 µL (CellTiter 96® AQueous One Solution Promega, Madison, WI, USA) reagent was added in each well. After 2 h at 37 °C in a 80% humidified, 5% CO2 atmosphere, the absorbance at 490 nm was recorded using a microplate reader (BIO-RAD iMark^TM). The results were obtained in three independent duplicate experiments. The primary data were shown in Supplementary Materials Tables S4–S7. The IC50 values for these compounds were calculated from a non-linear regression graph plotted between the percentage of cell viability and concentration with SPSS17.0 software.
compound,measurement,setting,value
CCOC(=O)c1[nH]c(C2NC(=O)NC(C)=C2C(=O)Nc2ccccc2C)c(C(=O)OC)c1C (centres unmarked) [D4],OD490 Mean,"0.5μM, first assay",0.5704
same,OD490 Well 1,"0.5μM, first assay",0.5884
same,OD490 Well 2,"0.5μM, first assay",0.5582
same,OD490 Well 3,"0.5μM, first assay",0.5647
same,OD490 Mean,"0.5μM, second assay",0.5955
same,OD490 Well 1,"0.5μM, second assay",0.5407
same,OD490 Well 2,"0.5μM, second assay",0.6416
same,OD490 Well 3,"0.5μM, second assay",0.6041
same,OD490 Mean,"0.5μM, third assay",0.6609
same,OD490 Well 1,"0.5μM, third assay",0.6698
same,OD490 Well 2,"0.5μM, third assay",0.6201
same,OD490 Well 3,"0.5μM, third assay",0.6928
same,OD490 Mean,"1μM, first assay",0.5753
same,OD490 Well 1,"1μM, first assay",0.5948
same,OD490 Well 2,"1μM, first assay",0.5673
same,OD490 Well 3,"1μM, first assay",0.5637
same,OD490 Mean,"1μM, second assay",0.6402
same,OD490 Well 1,"1μM, second assay",0.6433
same,OD490 Well 2,"1μM, second assay",0.6589
same,OD490 Well 3,"1μM, second assay",0.6185
same,OD490 Mean,"1μM, third assay",0.6218
same,OD490 Well 1,"1μM, third assay",0.6635
same,OD490 Well 2,"1μM, third assay",0.6890
same,OD490 Well 3,"1μM, third assay",0.5129
same,OD490 Mean,"10μM, first assay",0.5338
same,OD490 Well 1,"10μM, first assay",0.5500
same,OD490 Well 2,"10μM, first assay",0.5282
same,OD490 Well 3,"10μM, first assay",0.5233
same,OD490 Mean,"10μM, second assay",0.5742
same,OD490 Well 1,"10μM, second assay",0.5277
same,OD490 Well 2,"10μM, second assay",0.6414
same,OD490 Well 3,"10μM, second assay",0.5536
same,OD490 Mean,"10μM, third assay",0.5630
same,OD490 Well 1,"10μM, third assay",0.5899
same,OD490 Well 2,"10μM, third assay",0.5614
same,OD490 Well 3,"10μM, third assay",0.5377
same,OD490 Mean,"25μM, first assay",0.5869
same,OD490 Well 1,"25μM, first assay",0.5783
same,OD490 Well 2,"25μM, first assay",0.5766
same,OD490 Well 3,"25μM, first assay",0.6058
same,OD490 Mean,"25μM, second assay",0.5033
same,OD490 Well 1,"25μM, second assay",0.5352
same,OD490 Well 2,"25μM, second assay",0.4777
same,OD490 Well 3,"25μM, second assay",0.4969
same,OD490 Mean,"25μM, third assay",0.5111
same,OD490 Well 1,"25μM, third assay",0.5123
same,OD490 Well 2,"25μM, third assay",0.4876
same,OD490 Well 3,"25μM, third assay",0.5333
same,OD490 Mean,"50μM, first assay",0.5039
same,OD490 Well 1,"50μM, first assay",0.4576
same,OD490 Well 2,"50μM, first assay",0.5055
same,OD490 Well 3,"50μM, first assay",0.5485
same,OD490 Mean,"50μM, second assay",0.4399
same,OD490 Well 1,"50μM, second assay",0.41
same,OD490 Well 2,"50μM, second assay",0.4612
same,OD490 Well 3,"50μM, second assay",0.4486
same,OD490 Mean,"50μM, third assay",0.4077
same,OD490 Well 1,"50μM, third assay",0.4412
same,OD490 Well 2,"50μM, third assay",0.4698
same,OD490 Well 3,"50μM, third assay",0.3120
same,OD490 Mean,"100μM, first assay",0.3850
same,OD490 Well 1,"100μM, first assay",0.4202
same,OD490 Well 2,"100μM, first assay",0.3796
same,OD490 Well 3,"100μM, first assay",0.3553
same,OD490 Mean,"100μM, second assay",0.3934
same,OD490 Well 1,"100μM, second assay",0.4418
same,OD490 Well 2,"100μM, second assay",0.3643
same,OD490 Well 3,"100μM, second assay",0.3741
same,OD490 Mean,"100μM, third assay",0.4011
same,OD490 Well 1,"100μM, third assay",0.3698
same,OD490 Well 2,"100μM, third assay",0.4013
same,OD490 Well 3,"100μM, third assay",0.4321
same,IC50,,80.5 µM
CCOC(=O)c1[nH]c(C2NC(=S)NC(C)=C2C(=O)OC)c(C(=O)OCC)c1C (centres unmarked) [D12],OD490 Mean,"0.5μM, first assay",0.5030
same,OD490 Well 1,"0.5μM, first assay",0.4995
same,OD490 Well 2,"0.5μM, first assay",0.5121
same,OD490 Well 3,"0.5μM, first assay",0.4973
same,OD490 Mean,"0.5μM, second assay",0.6834
same,OD490 Well 1,"0.5μM, second assay",0.5732
same,OD490 Well 2,"0.5μM, second assay",0.7838
same,OD490 Well 3,"0.5μM, second assay",0.6933
same,OD490 Mean,"0.5μM, third assay",0.6157
same,OD490 Well 1,"0.5μM, third assay",0.6017
same,OD490 Well 2,"0.5μM, third assay",0.6354
same,OD490 Well 3,"0.5μM, third assay",0.6100
same,OD490 Mean,"1μM, first assay",0.4963
same,OD490 Well 1,"1μM, first assay",0.4703
same,OD490 Well 2,"1μM, first assay",0.5352
same,OD490 Well 3,"1μM, first assay",0.4835
same,OD490 Mean,"1μM, second assay",0.6457
same,OD490 Well 1,"1μM, second assay",0.5559
same,OD490 Well 2,"1μM, second assay",0.7221
same,OD490 Well 3,"1μM, second assay",0.6591
same,OD490 Mean,"1μM, third assay",0.6229
same,OD490 Well 1,"1μM, third assay",0.6178
same,OD490 Well 2,"1μM, third assay",0.6489
same,OD490 Well 3,"1μM, third assay",0.6021
same,OD490 Mean,"10μM, first assay",0.5326
same,OD490 Well 1,"10μM, first assay",0.5238
same,OD490 Well 2,"10μM, first assay",0.5488
same,OD490 Well 3,"10μM, first assay",0.5251
same,OD490 Mean,"10μM, second assay",0.6099
same,OD490 Well 1,"10μM, second assay",0.585
same,OD490 Well 2,"10μM, second assay",0.6539
same,OD490 Well 3,"10μM, second assay",0.5909
same,OD490 Mean,"10μM, third assay",0.6194
same,OD490 Well 1,"10μM, third assay",0.6123
same,OD490 Well 2,"10μM, third assay",0.6244
same,OD490 Well 3,"10μM, third assay",0.6214
same,OD490 Mean,"25μM, first assay",0.5279
same,OD490 Well 1,"25μM, first assay",0.5868
same,OD490 Well 2,"25μM, first assay",0.5324
same,OD490 Well 3,"25μM, first assay",0.4646
same,OD490 Mean,"25μM, second assay",0.5376
same,OD490 Well 1,"25μM, second assay",0.5247
same,OD490 Well 2,"25μM, second assay",0.5145
same,OD490 Well 3,"25μM, second assay",0.5736
same,OD490 Mean,"25μM, third assay",0.5839
same,OD490 Well 1,"25μM, third assay",0.5863
same,OD490 Well 2,"25μM, third assay",0.5944
same,OD490 Well 3,"25μM, third assay",0.5711
same,OD490 Mean,"50μM, first assay",0.5705
same,OD490 Well 1,"50μM, first assay",0.5776
same,OD490 Well 2,"50μM, first assay",0.5840
same,OD490 Well 3,"50μM, first assay",0.5499
same,OD490 Mean,"50μM, second assay",0.6141
same,OD490 Well 1,"50μM, second assay",0.6452
same,OD490 Well 2,"50μM, second assay",0.6668
same,OD490 Well 3,"50μM, second assay",0.5302
same,OD490 Mean,"50μM, third assay",0.5882
same,OD490 Well 1,"50μM, third assay",0.5933
same,OD490 Well 2,"50μM, third assay",0.5725
same,OD490 Well 3,"50μM, third assay",0.5988
same,OD490 Mean,"100μM, first assay",0.4236
same,OD490 Well 1,"100μM, first assay",0.4210
same,OD490 Well 2,"100μM, first assay",0.4345
same,OD490 Well 3,"100μM, first assay",0.4153
same,OD490 Mean,"100μM, second assay",0.5967
same,OD490 Well 1,"100μM, second assay",0.5668
same,OD490 Well 2,"100μM, second assay",0.6735
same,OD490 Well 3,"100μM, second assay",0.5498
same,OD490 Mean,"100μM, third assay",0.4730
same,OD490 Well 1,"100μM, third assay",0.4925
same,OD490 Well 2,"100μM, third assay",0.4687
same,OD490 Well 3,"100μM, third assay",0.4578
same,IC50,,148 µM
